Drawing on ChEMBL document CHEMBL5678810, this text covers inhibition and residual activity for three compounds.

The subject of test [1] is Tyrosine-protein kinase ABL1 (Homo sapiens), P00519 [E255K]. The experiment in a line: Inhibition of T7 bacteriophage fused human phosphorylated ABL1 E255K mutant at 10 uM by KINOMEscan analysis relative to control.
For test [2], the target named is Phosphatidylinositol 5-phosphate 4-kinase type-2 beta (Homo sapiens) (UniProt P78356). The experiment in a line: Inhibition of T7 bacteriophage fused human PIP5K2B at 10 uM by KINOMEscan analysis relative to control.
In test [3] the target is Ribosomal protein S6 kinase alpha-1 (Homo sapiens) (UniProt Q15418). The experiment in a line: Inhibition of T7 bacteriophage fused human N-terminal RSK1 Kinase domain-1 at 10 uM by KINOMEscan analysis relative to control.
Test [4] addresses Serine/threonine-protein kinase Nek7 (Homo sapiens) (UniProt Q8TDX7). The experiment in a line: Inhibition of T7 bacteriophage fused human NEK7 at 10 uM by KINOMEscan analysis relative to control.
The target in test [5] is Serine/threonine-protein kinase/endoribonuclease IRE1 (Homo sapiens) (UniProt O75460). The experiment in a line: Inhibition of T7 bacteriophage fused human ERN1 at 10 uM by KINOMEscan analysis relative to control; values are per cent of control.
The target of test [6] is Serine/threonine-protein kinase STK11 (Homo sapiens) (UniProt Q15831). The experiment in a line: Inhibition of T7 bacteriophage fused human LKB1 at 10 uM by KINOMEscan analysis relative to control; values are per cent of control.
Test [7] has as its target Mast/stem cell growth factor receptor Kit (Homo sapiens) (UniProt P10721). As to the kind of experiment: Inhibition of T7 bacteriophage fused human KIT at 10 uM by KINOMEscan analysis relative to control.
Test [8] deals with Phosphatidylinositol 4,5-bisphosphate 3-kinase catalytic subunit alpha isoform (Homo sapiens), P42336 [C420R]. The experiment in a line: Inhibition of T7 bacteriophage fused human PIK3CA C420R mutant at 10 uM by KINOMEscan analysis relative to control.
The target of test [9] is Mitogen-activated protein kinase kinase kinase 1 (Homo sapiens) (UniProt Q13233). The experiment in a line: Inhibition of T7 bacteriophage fused human MAP3K1 at 10 uM by KINOMEscan analysis relative to control; values are per cent of control.
Test [10] deals with Receptor-interacting serine/threonine-protein kinase 2 (Homo sapiens) (UniProt O43353). As to the kind of experiment: Inhibition of T7 bacteriophage fused human RIPK2 at 10 uM by KINOMEscan analysis relative to control.
The target of test [11] is Megakaryocyte-associated tyrosine-protein kinase (Homo sapiens) (UniProt P42679). The experiment in a line: Inhibition of T7 bacteriophage fused human CTK at 10 uM by KINOMEscan analysis relative to control.
The target of test [12] is Tyrosine-protein kinase Lyn (Homo sapiens) (UniProt P07948). As to the kind of experiment: Inhibition of T7 bacteriophage fused human LYN at 10 uM by KINOMEscan analysis relative to control.
The target of test [13] is RAC-beta serine/threonine-protein kinase (Homo sapiens) (UniProt P31751). The experiment in a line: Inhibition of T7 bacteriophage fused human AKT2 at 10 uM by KINOMEscan analysis relative to control.
For test [14], the target named is Ribosomal protein S6 kinase alpha-4 (Homo sapiens) (UniProt O75676). As to the kind of experiment: Inhibition of T7 bacteriophage fused human N-terminal RPS6KA4 Kinase domain-1 at 10 uM by KINOMEscan analysis relative to control.
Test [15] deals with CDK4/Cyclin D3 (Homo sapiens) (UniProt P11802+P30281). The experiment in a line: Inhibition of T7 bacteriophage fused human CDK4-cyclinD3 at 10 uM by KINOMEscan analysis relative to control. It counts as protein-complex assay.
Test [16] concerns the target Platelet-derived growth factor receptor alpha (Homo sapiens) (UniProt P16234). The experiment in a line: Inhibition of T7 bacteriophage fused human PDGFRA at 10 uM by KINOMEscan analysis relative to control.
In test [17] the test system is Epidermal growth factor receptor (Homo sapiens), P00533 [UNDEFINED MUTATION]. The experiment in a line: Inhibition of T7 bacteriophage fused human EGFR L747/S752del/P753S mutant at 10 uM by KINOMEscan analysis relative to control; values are per cent of control.
Test [18] has as its target Serine/threonine-protein kinase Nek5 (Homo sapiens) (UniProt Q6P3R8). The experiment in a line: Inhibition of T7 bacteriophage fused human NEK5 at 10 uM by KINOMEscan analysis relative to control.
Test [19] addresses Serine/threonine-protein kinase MRCK gamma (Homo sapiens) (UniProt Q6DT37). The experiment in a line: Inhibition of T7 bacteriophage fused human DMPK2 at 10 uM by KINOMEscan analysis relative to control.
The target of test [20] is Myotonin-protein kinase (Homo sapiens) (UniProt Q09013). The experiment in a line: Inhibition of T7 bacteriophage fused human DMPK at 10 uM by KINOMEscan analysis relative to control.
Test [21] deals with Serine/threonine-protein kinase PAK 2 (Homo sapiens) (UniProt Q13177). The experiment in a line: Inhibition of T7 bacteriophage fused human PAK2 at 10 uM by KINOMEscan analysis relative to control.
Test [22] deals with Cyclin-dependent kinase-like 2 (Homo sapiens) (UniProt Q92772). The experiment in a line: Inhibition of T7 bacteriophage fused human CDKL2 at 10 uM by KINOMEscan analysis relative to control.
Test [23] deals with Phosphatidylinositol 4,5-bisphosphate 3-kinase catalytic subunit beta isoform (Homo sapiens) (UniProt P42338). The experiment in a line: Inhibition of T7 bacteriophage fused human PIK3CB at 10 uM by KINOMEscan analysis relative to control.
The target of test [24] is Mitogen-activated protein kinase 7 (Homo sapiens, UniProt Q13164). The experiment in a line: Inhibition of T7 bacteriophage fused human ERK5 at 10 uM by KINOMEscan analysis relative to control; values are per cent of control.
The target of test [25] is Dual specificity mitogen-activated protein kinase kinase 3 (Homo sapiens) (UniProt P46734). As to the kind of experiment: Inhibition of T7 bacteriophage fused human MEK3 at 10 uM by KINOMEscan analysis relative to control; values are per cent of control.
The target in test [26] is Interferon-induced, double-stranded RNA-activated protein kinase (Homo sapiens) (UniProt P19525). As to the kind of experiment: Inhibition of T7 bacteriophage fused human PRKR at 10 uM by KINOMEscan analysis relative to control.
Test [27] has as its target Phosphatidylinositol 5-phosphate 4-kinase type-2 gamma (Homo sapiens) (UniProt Q8TBX8). The experiment in a line: Inhibition of PIP4K2C ATP labeling site harboring TLVIkEVSSEDIADMHSNLSNYHQYIVK in human PC-3 cell lysate at 10 uM by KiNativ profiling analysis relative to control. It counts as subcellular.
The target of test [28] is Serine/threonine-protein kinase STK11 (Homo sapiens) (UniProt Q15831). The experiment in a line: Inhibition of LKB1 Lys2 labeling site in human HEL cell lysate at 10 uM by KiNativ profiling analysis relative to control. The class given is subcellular.
Test [29] addresses Leucine-rich repeat serine/threonine-protein kinase 2 (Homo sapiens) (UniProt Q5S007). The experiment in a line: Inhibition of LRRK2 phosphorylation at Ser910 residue in EBV immortalized human derived lymphoblastoid cells at 0.01 to 3 uM incubated for 90 mins by immunoblot analysis. The class given is cell-based. The following applies: Lymphoblastoid cell, dose 0.01-3 µM. In general terms: Immunoblotting shows a protein as a band on a membrane.

SMILES strings stand for the structures. The source made the active and inactive calls. The rule behind the calls is not given here.

Chain of Serine/threonine-protein kinase STK11 (Homo sapiens) (Q15831 whole entry, the tested form may be a part): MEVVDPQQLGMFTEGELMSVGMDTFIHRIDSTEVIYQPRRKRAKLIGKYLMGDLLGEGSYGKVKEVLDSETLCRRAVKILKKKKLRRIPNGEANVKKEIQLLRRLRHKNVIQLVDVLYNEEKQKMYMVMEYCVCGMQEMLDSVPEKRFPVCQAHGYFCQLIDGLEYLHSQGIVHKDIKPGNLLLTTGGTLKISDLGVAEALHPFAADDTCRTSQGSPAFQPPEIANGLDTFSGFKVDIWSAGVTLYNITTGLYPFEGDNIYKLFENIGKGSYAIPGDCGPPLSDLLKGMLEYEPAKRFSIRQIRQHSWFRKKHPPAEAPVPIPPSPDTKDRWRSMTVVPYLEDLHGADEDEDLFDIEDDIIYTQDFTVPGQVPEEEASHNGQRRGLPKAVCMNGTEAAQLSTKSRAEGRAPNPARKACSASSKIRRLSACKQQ
Chain of Serine/threonine-protein kinase MRCK gamma (Homo sapiens) (Q6DT37 whole entry, the tested form may be a part): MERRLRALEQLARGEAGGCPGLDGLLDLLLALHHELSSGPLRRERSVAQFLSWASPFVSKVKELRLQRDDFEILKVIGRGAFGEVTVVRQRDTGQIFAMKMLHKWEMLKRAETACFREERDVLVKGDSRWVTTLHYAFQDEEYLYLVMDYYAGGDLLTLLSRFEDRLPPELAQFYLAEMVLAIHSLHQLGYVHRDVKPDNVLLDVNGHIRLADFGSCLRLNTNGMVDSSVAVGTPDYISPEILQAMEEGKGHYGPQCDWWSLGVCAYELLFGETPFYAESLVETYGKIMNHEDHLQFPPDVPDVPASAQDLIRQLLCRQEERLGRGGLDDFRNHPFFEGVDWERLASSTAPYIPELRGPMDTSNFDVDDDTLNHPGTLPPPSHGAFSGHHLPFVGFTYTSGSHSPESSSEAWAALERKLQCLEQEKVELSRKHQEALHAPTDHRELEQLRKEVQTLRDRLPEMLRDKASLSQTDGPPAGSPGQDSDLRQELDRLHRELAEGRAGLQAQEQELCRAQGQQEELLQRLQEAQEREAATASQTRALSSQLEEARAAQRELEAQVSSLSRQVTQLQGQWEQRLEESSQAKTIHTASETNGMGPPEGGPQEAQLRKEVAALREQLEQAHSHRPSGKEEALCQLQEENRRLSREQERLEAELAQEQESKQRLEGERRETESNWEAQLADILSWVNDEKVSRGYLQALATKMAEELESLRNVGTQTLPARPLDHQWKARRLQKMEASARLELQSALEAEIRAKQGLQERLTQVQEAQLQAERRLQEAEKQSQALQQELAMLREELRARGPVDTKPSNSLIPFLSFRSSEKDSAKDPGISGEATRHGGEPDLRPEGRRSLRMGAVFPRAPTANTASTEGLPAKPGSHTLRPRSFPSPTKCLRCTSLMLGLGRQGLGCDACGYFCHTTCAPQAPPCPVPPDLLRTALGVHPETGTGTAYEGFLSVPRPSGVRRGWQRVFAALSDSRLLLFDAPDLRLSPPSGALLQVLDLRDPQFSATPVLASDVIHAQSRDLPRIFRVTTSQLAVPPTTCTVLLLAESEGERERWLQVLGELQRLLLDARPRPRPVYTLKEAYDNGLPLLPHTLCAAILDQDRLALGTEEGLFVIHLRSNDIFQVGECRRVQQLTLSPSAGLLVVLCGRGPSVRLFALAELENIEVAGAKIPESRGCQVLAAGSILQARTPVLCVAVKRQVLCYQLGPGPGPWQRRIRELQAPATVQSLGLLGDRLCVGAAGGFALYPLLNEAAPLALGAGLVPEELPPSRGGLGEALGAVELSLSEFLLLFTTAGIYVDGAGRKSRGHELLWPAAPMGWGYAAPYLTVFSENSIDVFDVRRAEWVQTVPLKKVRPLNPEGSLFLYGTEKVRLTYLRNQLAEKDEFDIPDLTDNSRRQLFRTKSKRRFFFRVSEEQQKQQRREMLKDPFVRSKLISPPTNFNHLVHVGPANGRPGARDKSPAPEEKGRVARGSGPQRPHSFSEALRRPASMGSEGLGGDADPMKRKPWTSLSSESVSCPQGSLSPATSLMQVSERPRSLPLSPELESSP
Chain of Receptor-interacting serine/threonine-protein kinase 2 (Homo sapiens) (O43353 whole entry, the tested form may be a part): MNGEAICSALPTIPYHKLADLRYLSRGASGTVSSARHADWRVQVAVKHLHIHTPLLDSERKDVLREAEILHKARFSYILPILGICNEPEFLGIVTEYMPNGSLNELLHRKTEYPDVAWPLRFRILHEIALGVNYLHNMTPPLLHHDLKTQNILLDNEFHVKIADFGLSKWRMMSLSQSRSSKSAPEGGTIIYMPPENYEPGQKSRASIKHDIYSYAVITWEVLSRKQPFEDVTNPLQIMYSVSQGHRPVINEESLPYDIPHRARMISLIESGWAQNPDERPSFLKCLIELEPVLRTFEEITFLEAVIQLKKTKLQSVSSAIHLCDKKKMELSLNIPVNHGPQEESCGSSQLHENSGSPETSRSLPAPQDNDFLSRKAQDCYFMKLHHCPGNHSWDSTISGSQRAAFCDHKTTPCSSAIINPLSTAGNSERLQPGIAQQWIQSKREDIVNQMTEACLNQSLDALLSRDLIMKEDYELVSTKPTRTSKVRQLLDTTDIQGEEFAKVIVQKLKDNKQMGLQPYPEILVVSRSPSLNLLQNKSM
Chain of Phosphatidylinositol 4,5-bisphosphate 3-kinase catalytic subunit beta isoform (Homo sapiens) (P42338 whole entry, looked up, the tested form may be a part, canonical isoform): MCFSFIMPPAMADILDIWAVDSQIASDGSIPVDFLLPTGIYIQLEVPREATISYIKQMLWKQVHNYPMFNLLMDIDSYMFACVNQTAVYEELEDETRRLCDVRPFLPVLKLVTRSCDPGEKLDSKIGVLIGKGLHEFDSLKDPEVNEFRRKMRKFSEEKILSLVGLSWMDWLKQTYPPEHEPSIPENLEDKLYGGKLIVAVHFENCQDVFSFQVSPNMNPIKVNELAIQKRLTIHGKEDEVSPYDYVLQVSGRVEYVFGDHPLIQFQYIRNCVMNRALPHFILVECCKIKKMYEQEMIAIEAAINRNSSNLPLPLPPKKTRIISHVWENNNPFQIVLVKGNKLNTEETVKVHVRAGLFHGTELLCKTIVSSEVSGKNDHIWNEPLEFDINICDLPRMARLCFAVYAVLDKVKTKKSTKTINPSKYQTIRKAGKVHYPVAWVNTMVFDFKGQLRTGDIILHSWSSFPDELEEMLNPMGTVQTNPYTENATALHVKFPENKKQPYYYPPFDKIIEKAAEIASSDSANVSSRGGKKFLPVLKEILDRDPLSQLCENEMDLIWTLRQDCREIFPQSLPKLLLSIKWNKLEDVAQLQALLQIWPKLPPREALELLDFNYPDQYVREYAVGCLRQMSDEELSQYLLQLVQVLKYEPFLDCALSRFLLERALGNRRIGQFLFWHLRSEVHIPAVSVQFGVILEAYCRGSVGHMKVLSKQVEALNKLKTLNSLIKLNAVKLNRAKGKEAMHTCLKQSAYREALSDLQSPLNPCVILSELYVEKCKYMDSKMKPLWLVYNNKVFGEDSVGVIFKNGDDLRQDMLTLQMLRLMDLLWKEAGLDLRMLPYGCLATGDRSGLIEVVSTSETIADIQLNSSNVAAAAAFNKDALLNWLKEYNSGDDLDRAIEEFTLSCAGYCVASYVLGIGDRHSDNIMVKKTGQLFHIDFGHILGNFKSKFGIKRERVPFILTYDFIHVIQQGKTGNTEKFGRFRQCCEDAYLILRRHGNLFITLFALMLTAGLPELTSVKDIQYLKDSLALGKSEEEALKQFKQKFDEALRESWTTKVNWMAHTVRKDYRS
Chain of Mitogen-activated protein kinase kinase kinase 1 (Homo sapiens) (Q13233 whole entry, the tested form may be a part): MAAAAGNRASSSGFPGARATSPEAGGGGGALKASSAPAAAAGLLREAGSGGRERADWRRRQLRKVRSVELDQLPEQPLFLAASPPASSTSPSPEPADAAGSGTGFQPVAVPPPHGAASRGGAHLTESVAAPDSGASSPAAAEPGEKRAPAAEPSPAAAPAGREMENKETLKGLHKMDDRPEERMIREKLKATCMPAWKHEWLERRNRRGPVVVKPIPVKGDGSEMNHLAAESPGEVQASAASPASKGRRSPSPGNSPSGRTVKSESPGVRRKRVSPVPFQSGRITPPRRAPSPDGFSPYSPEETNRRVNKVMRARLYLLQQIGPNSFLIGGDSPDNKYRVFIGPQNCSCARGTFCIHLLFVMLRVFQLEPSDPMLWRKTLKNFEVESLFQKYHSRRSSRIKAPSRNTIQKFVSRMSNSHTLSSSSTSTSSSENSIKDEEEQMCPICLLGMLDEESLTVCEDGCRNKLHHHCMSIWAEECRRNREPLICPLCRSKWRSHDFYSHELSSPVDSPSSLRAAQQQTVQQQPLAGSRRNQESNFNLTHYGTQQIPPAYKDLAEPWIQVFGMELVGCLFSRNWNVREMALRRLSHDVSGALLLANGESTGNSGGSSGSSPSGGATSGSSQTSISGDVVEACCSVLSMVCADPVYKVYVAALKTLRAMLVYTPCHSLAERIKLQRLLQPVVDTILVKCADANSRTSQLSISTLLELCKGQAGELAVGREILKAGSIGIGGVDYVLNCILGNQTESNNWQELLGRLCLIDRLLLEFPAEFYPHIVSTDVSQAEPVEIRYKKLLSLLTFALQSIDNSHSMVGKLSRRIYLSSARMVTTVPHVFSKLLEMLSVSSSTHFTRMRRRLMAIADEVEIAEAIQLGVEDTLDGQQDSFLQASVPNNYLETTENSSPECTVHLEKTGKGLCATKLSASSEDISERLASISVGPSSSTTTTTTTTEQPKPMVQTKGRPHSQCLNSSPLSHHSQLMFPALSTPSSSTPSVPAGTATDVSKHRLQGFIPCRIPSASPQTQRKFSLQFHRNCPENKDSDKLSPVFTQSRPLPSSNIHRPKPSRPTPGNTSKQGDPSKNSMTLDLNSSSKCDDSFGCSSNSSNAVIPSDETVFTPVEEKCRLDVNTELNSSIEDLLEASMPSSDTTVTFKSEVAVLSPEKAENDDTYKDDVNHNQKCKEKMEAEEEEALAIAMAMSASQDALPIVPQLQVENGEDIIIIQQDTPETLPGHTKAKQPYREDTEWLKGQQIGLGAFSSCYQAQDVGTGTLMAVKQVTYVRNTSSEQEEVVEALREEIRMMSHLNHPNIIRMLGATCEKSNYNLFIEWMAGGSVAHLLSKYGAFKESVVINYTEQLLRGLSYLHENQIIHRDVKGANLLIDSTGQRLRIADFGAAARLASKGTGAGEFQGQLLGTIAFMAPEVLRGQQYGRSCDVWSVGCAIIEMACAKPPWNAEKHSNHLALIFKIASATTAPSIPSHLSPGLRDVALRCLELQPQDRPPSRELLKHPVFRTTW

A word on the inhibition: it is the change of the read-out against control, counted positive when it falls. Regarding `COc1cc(N2CCC(N3CCN(C)CC3)CC2)ccc1Nc1ncc2c(n1)N(C)c1ccccc1C(=O)N2C`, the inhibition was 80% in test [1]; 100% in [2]; 73% in test [3]; 100% in test [4]; 100% in test [7]; 89% in [8]. Moreover, the inhibition in test [10], in test [11], in test [12], in test [13], in [14] and in test [15] was 100% throughout. The inhibition in test [16] is 100%; in test [18], 100%; in test [19], 100%; in test [20], 100%; in test [21], 65%; in test [22] it was 100%. Further, the figures for the inhibition in test [23] and in [26] were 96% and 84%, respectively. Besides, the residual activity in test [5] is 59%; in test [6], 96%; in test [9] it was 95%; in [17], 84%; in [24], 0.05%; in [25], 75%.
As to `COc1cc(C(=O)N2CCC(N3CCN(C)CC3)CC2)ccc1Nc1ncc2c(n1)N(C1CCCC1)c1ccccc1C(=O)N2C`, the inhibition in test [27] was -0.1%; in test [28], -0.3%.
For the compound `CCOc1cc(C(=O)N2CCC(N3CCN(C)CC3)CC2)ccc1Nc1ncc2c(n1)N(C1CCCC1)c1ccccc1C(=O)N2C`, the inhibition entry in test [29] is “inactive”.
